Where a SMILES comes first, the peptide text is derived from it. Where no end group is shown, it is not given here.

Data set [1] relates to human adipose-derived mesenchymal stem cells (AD-MSC). Description: CCK-8 assay, cytotoxicity. Type of data set: cell-based. As to conditions: 7 days, peptide at different concentrations, FIG. 3, FIG. 4. On the technique in general: Formazan colour is commonly taken as a measure of viable cells.
Method: Specifically, AD-MSC cells were seeded in 96-well plates at a density of 1.5×10^3 cells/well and cultured in Dulbecco's Modified Eagle's Medium (DMEM) supplemented with 10% FBS for 24 hours. Then, the medium was replaced with DMEM medium supplemented with 5% FBS, and Peptide-1 or Peptide-2 was treated at different concentrations, respectively. Subsequently, the medium was replaced every 3 days and Peptide-1 or Peptide-2 was treated at different concentrations, respectively. To confirm CCK-8 activity, after 7 days, CCK-8 (Dojindo, CCK-8 kit) solution was added at 1/10 volume of the culture medium, and incubated for 2 hours. The culture medium was sampled and CCK-8 activity was confirmed at a wavelength of 450 nm using a microplate reader.
Data set [2] shares this test system. The data set is described as follows: SRB staining, cell morphology changes. To be noted: peptide at different concentrations, FIG. 1, FIG. 2. Format: cell-based. The method, then: Additionally, for SRB staining, after suctioning the medium from the plate, 60 μL of 3.7% formalin was added to the 96-well plate to be stained and fixed for 1 minute. After suctioning 3.7% formalin, 70 μL of SRB staining solution (sulforhodamine B sodium salt (sigma, S9012): 0.2 g in 100 mL DDW) was added and stained. The plate was covered with aluminum foil, blocked from light, and incubated overnight at room temperature. After washing with 100 μL of 1% acetic acid using a multi-pipette, it was dried and observed under a microscope. Meanwhile, in this example, the positive control group (CM) used was one containing dexamethasone (100 nM), […], proline (40 μM), TGFβ1 (10 ng/ml), and 1×ITS.

Consider `CC(C)C[C@H](NC(=O)[C@@H](N)CCCNC(=N)N)C(=O)N[C@@H](CCCNC(=N)N)C(=O)N[C@@H](CO)C(=O)O` [Peptide-2, RLRS] (H-RLRS-OH), for which, in data set [1], the “toxicity toward adipose-derived mesenchymal stem cells (CCK-8 activity)” value is listed as “did not exhibit toxicity”. The “change in cell morphology in SRB staining” value in data set [2] is recorded as “did not show any change in cell morphology”.
The corresponding values for LYRYEEHHE [Peptide-1, LYRYEEHHE] are “did not exhibit toxicity” and “did not show any change in cell morphology”.

The values are drawn from patent publication US20260200974A1, “PEPTIDE FOR CARTILAGE REGENERATION, AND USES THEREOF” (CAREGEN CO., LTD., priority 2022, published 2026).
